Test results as given in publication PMC7987348, “Structural basis for human TRPC5 channel inhibition by two distinct inhibitors” (eLife, 2021).
Positions count from the first letter of the chain named. pIC50: −log10 of the molar value. Where two headings read alike, the source gives them in different places.

What was measured:
[1] = target: T1, hTRPC5 N443L (Homo sapiens, UniProt Q9UL62, N443L); test: FLIPR calcium assay, hTRPC5 mutant N443L; assay type: cell-based
T1 construct: We use full-length nontagged hTRPC5 construct for FLIPR assay unless indicated otherwise; expressed in transfected cells; host or cells: AD293
T1 sequence (Q9UL62 1-973 N443L): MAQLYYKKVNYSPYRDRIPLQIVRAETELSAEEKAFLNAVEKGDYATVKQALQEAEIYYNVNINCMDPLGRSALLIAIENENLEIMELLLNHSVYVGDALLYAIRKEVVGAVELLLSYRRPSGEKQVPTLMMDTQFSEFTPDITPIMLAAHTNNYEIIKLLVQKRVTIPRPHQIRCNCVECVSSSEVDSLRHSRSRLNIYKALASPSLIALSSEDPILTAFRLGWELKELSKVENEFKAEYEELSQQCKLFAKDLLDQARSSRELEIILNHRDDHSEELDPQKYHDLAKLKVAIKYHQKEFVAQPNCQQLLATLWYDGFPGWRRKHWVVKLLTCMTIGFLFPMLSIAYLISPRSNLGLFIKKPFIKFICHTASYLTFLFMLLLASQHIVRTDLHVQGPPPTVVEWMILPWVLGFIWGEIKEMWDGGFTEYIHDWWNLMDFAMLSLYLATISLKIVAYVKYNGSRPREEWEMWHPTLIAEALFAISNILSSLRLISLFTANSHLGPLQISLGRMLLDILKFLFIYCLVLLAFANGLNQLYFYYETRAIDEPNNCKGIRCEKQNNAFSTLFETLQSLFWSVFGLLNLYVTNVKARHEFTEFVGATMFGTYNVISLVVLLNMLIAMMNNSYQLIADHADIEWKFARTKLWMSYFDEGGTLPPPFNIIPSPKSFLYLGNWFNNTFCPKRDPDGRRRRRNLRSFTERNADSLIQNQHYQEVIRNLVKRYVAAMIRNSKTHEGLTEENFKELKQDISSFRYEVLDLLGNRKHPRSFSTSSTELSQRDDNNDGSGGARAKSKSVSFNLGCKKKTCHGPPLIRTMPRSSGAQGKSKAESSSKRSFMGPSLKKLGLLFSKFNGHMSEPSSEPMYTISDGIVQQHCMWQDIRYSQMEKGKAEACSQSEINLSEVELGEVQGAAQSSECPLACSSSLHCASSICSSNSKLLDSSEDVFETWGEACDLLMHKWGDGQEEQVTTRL
Experimental: (§1) […]. Then the suspended cell culture was further diluted for 5.4- to 7-fold with culture medium and seeded onto black well, clear bottom, poly-D-lysine-coated 96-well plate (Costar) and cultured overnight. We use full-length nontagged hTRPC5 construct for FLIPR assay unless indicated otherwise. hTRPC5 plasmids were transfected into AD293 cells (60-80% confluence) with PEI. 30–40 hr post-transfection, culture medium was discarded and cells were incubated with 50 μl per well of 4 μM Rhod-2/AM (AAT Bioquest) in TARODES’s buffer (10 mM HEPES, 150 mM NaCl, 4 mM KCl, 2 mM MgCl2, 2 mM CaCl2, 11 mM glucose, pH 7.4) supplemented with 0.02% Pluronic F-127 (Sigma) for 5 min in dark at room temperature. Then dye was removed and replaced with 50 μl of TARODE’s buffer per well. The application of compounds and detection of intracellular calcium elevation were performed using FLIPR-TETRA (Molecular Devices) at room temperature (25–27°C). Fluorescence signals were read with excitation/emission at 510–545/565–625 nm.
(§2) […]. Then fluorescence was measured for 300 s.
(§3) Buffer A contains 2× concentration of working concentration of inhibitor. […]. for control-Min, both buffer A and buffer B were replaced by TARODE’s buffer.
(§4) […]; the average of fluorescence value of last 20 time points was considered as the ‘end fluorescence’. The value of ‘end fluorescence’ minus ‘start fluorescence’ was considered as ‘signal value’ for each well. […].
(§5) Three independent experiments were performed on different days (biological replicates), with each experiment containing three replicates (technique replicates).

[2] = target: T2, hTRPC5 F414M (Homo sapiens, UniProt Q9UL62, F414M); test: FLIPR calcium assay, hTRPC5 mutant F414M; assay type: cell-based
T2 construct: We use full-length nontagged hTRPC5 construct for FLIPR assay unless indicated otherwise; expressed in transfected cells; host or cells: AD293
T2 sequence (Q9UL62 1-973 F414M): T1 sequence (Q9UL62 1-973 N443L) with F414M, L443N
Experimental: as §1, §2, §3, §4, §5

[3] = CMZ, 14 mM extracellular calcium, read-out: IC50
[4] = CMZ, log of IC50 in μM, logIC50 ± SEM, n = 3, read-out: LogIC50 (converted)
[5] = read-out: normalized RFU (% WT), Clemizole 0.400391 μM, 14 mM Ca2+, each column one independent experiment
[6] = read-out: normalized RFU (% WT), Clemizole 0.800781 μM, 14 mM Ca2+, each column one independent experiment
[7] = read-out: normalized RFU (% WT), Clemizole 6.40625 μM, 14 mM Ca2+, each column one independent experiment

## Clc1ccc(Cn2c(CN3CCCC3)nc3ccccc32)cc1 [CMZ, clemizole]
[1]; CMZ
  Hill slope: −2.42
[1]; [3]
  pIC50: 4.98
[1]; [4]
  IC50: 10.5 µM
[1]; [5]
  remaining activity at 0.400391 µM: 89.5%
[1]; [6]
  remaining activity at 0.800781 µM: 64.6%
[1]; read-out: normalized RFU (% WT), Clemizole 3.20312 μM, 14 mM Ca2+, each column one independent experiment
  remaining activity at 3.20312 µM: 56.3%
[1]; [7]
  remaining activity at 6.40625 µM: 52.8%
[2]; CMZ
  Hill slope: −1.45
[2]; [3]
  pIC50: 5.67
[2]; [4]
  IC50: 2.14 µM
[2]; read-out: normalized RFU (% WT), Clemizole 0.200195 μM, 14 mM Ca2+, each column one independent experiment
  remaining activity at 0.200195 µM: 130%
[2]; [5]
  remaining activity at 0.400391 µM: 116%
[2]; [6]
  remaining activity at 0.800781 µM: 107%
[2]; [7]
  remaining activity at 6.40625 µM: 32.1%
